Test results from patent publication US12653191B2, “Active compound combinations” (Bayer Aktiengesellschaft, priority 2020, dated 2026).
Several values for one entry are separate records, joined by “and”; a condition that tells them apart may be missing. Equal entries are not always repeated.

What was measured:
Botrytis cinerea [1] = assay: in vitro-Test with fungal microorganisms, Method A (tables B1-B14); format: cell-based; settings: for Efficacy %: alone
Outline: (§1)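 Growth inhibition was measured photometrically at 620 nm 3–5 days after application, with 100% efficacy meaning no growth and 0% meaning growth equal to the untreated control. Fungal spore or mycelium suspension in potato dextrose broth was added onto solvent-evaporated compound and incubated at 20° C and 85% relative humidity.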

Alternaria alternata = assay: in vitro-Test with fungal microorganisms, Method B (tables A13-A22); format: cell-based
Outline: (§2)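 Efficacy scale: 0% means growth equal to the untreated control, 100% means none detected. Compounds are dried from methanol with emulsifier before adding inoculated growth medium; incubation at 20° C., 85% relative humidity for 3 to 7 days precedes photometric inhibition readout.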

Diaporthe citri [2] = assay: in vitro-Test with fungal microorganisms, Method A (tables F1-F11); format: cell-based
Outline: as §1

Parastagonospora nodorum = assay: in vitro-Test with fungal microorganisms, Method A (tables H1-H4); format: cell-based
Protocol: Example: In Vitro-Test with Fungal Microorganisms
Wells of 96-well microtiter plates are filled with 10 μl of a preparation of test compound or compound combination in methanol+emulsifier alkylaryl-polyglycol-ether. Thereafter, the solvent is evaporated in a hood. At the next step, 100 μl of liquid potato dextrose medium is given into each well, that has been amended with an appropriate concentration of spores or mycelium suspension of the test fungus.
With the aid of a photometer, the extinction in all wells is measured at the wavelength of 620 nm.
The microtiter plates are incubated at 20° C. and 85% relative humidity. The inhibition of growth is determined again photometrically 3-5 days after the application. Efficacy is calculated in relation to the untreated control, 0% efficacy means fungal growth as high as in untreated control while 100% efficacy means no fungal growth is measured.
The data in tables A1 to A12, B1 to B14, C1 to C10, D1 to D8, E1 to E8, F1 to F11, G1 to G4, H1 to H4 and I1 to I5 were collected according to Method A. The data in tables A13 to A22, B15 to B18, C11 to C20, E9 to E16, F12 to F15, G5 to G15, H5 to H8, I6 to I11 and J1 to J11 were collected according to Method B.

[3] = tested on: Ustilago segetum var. avenae; assay: in vitro-Test with fungal microorganisms, Method B (tables I6-I11); format: cell-based
Outline: as §2

[4] = tested on: Ustilago segetum var. avenae; assay: in vitro-Test with fungal microorganisms, Method A (tables I1-I5); format: cell-based; settings: alone
Outline: as §1

Cordana musae [5] = assay: in vitro-Test with fungal microorganisms, Method B (tables E9-E16); format: cell-based; settings: for Efficacy: single active; for Efficacy %: single substance
Outline: as §2

Fusarium culmorum = assay: in vitro-Test with fungal microorganisms, Method B (tables G5-G15); format: cell-based
Outline: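 Read photometrically at 600 nm after 3-7 days at 20° C and 85% relative humidity, Fusarium culmorum growth inhibition is expressed against untreated control. Wells hold solvent-evaporated compound (from methanol/emulsifier) overlaid with spore- or mycelium-amended growth medium.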

Cordana musae [6] = assay: in vitro-Test with fungal microorganisms, Method A (tables E1-E8); format: cell-based; settings: single substance
Outline: as §1

Botrytis cinerea [7] = assay: in vitro-Test with fungal microorganisms, Method B (tables B15-B18); format: cell-based; settings: alone
Outline: as §2

Cercospora beticola [8] = assay: in vitro-Test with fungal microorganisms, Method B (tables C11-C20); format: cell-based; settings: single compound
Outline: as §2

Colletotrichum coccodes = assay: in vitro-Test with fungal microorganisms, Method B (tables J1-J11); format: cell-based
Outline: as §2

Diaporthe citri [9] = assay: in vitro-Test with fungal microorganisms, Method B (tables F12-F15); format: cell-based
Outline: as §2

Alternaria alternate = assay: in vitro-Test with fungal microorganisms, Method A (tables A1-A12); format: cell-based, Alternaria alternata; settings: applied alone
Outline: as §1

Cercospora beticola [10] = assay: in vitro-Test with fungal microorganisms, Method A (tables C1-C10); format: cell-based
Outline: as §1

[11] = tested on: Colletotrichum lindemuthianum; assay: in vitro-Test with fungal microorganisms, Method A (tables D1-D8); format: cell-based
Outline: as §1

COc1ccnc(C(=O)N[C@H]2COC(=O)[C@H](Cc3ccccc3)[C@@H](OC(=O)C(C)C)[C@H](C)OC2=O)c1OCOC(=O)C(C)C [(3.025) fenpicoxamid, fenpicoxamid]
Efficacy (Botrytis cinerea [1]; 0.04 ppm): 6%
Efficacy (Botrytis cinerea [1]; 0.2 ppm): 6%
Efficacy (Botrytis cinerea [1]; 1.0 ppm): 21%
Efficacy % (Botrytis cinerea [1]; 0.04 ppm): 15%
Efficacy % (Botrytis cinerea [1]; 0.2 ppm): 9%
Efficacy % (Botrytis cinerea [1]; 1.0 ppm): 15%
Efficacy % (Botrytis cinerea [1]; 5.0 ppm): 45%
Efficacy (Alternaria alternata; single compound, 0.008 ppm): 6%
Efficacy (Alternaria alternata; single compound, 0.04 ppm): 14%
Efficacy (Alternaria alternata; single compound, 1 ppm): 61%
Efficacy (Diaporthe citri [2]; applied alone, 0.04 ppm): 3%
Efficacy (Diaporthe citri [2]; applied alone, 1.0 ppm): 79% and 66%
Efficacy (Diaporthe citri [2]; applied alone, 5.0 ppm): 92%
Efficacy (Parastagonospora nodorum; 0.04 ppm): 19%
Efficacy (Parastagonospora nodorum; 0.2 ppm): 61%
Efficacy (Parastagonospora nodorum; 1.0 ppm): 64%
Efficacy (Parastagonospora nodorum; 5.0 ppm): 72%
Efficacy % ([3]; 0.008 ppm): 14%
Efficacy % ([3]; 0.04 ppm): 6%
Efficacy % ([3]; 0.2 ppm): 1%
Efficacy % ([4]; 0.04 ppm): 0%
Efficacy % ([4]; 0.2 ppm): 0%
Efficacy % ([4]; 1.0 ppm): 0%
Efficacy % ([4]; 5.0 ppm): 0%
Efficacy (Cordana musae [5]; 0.2 ppm): 44%
Efficacy % (Cordana musae [5]; 0.008 ppm): 0%
Efficacy % (Cordana musae [5]; 0.2 ppm): 52%
Efficacy (Fusarium culmorum; 0.008 ppm alone): 10%
Efficacy (Fusarium culmorum; single active compound, 0.008 ppm): 7% and 5%
Efficacy (Fusarium culmorum; single active compound, 0.04 ppm): 1% and 9%
Efficacy (Fusarium culmorum; single active compound, 0.2 ppm): 18% and 25%
Efficacy (Fusarium culmorum; single active compound, 1 ppm): 17%
Efficacy % (Cordana musae [6]; 1.0 ppm): 40%
Efficacy % (Cordana musae [6]; 5.0 ppm): 80%
Efficacy % (Botrytis cinerea [7]; 0.008 ppm): 0%
Efficacy % (Botrytis cinerea [7]; 0.2 ppm): 14%
Efficacy % (Botrytis cinerea [7]; 1 ppm): 52%
Efficacy % (Cercospora beticola [8]; 0.008 ppm): 0%
Efficacy % (Cercospora beticola [8]; 0.2 ppm): 17% and 31%
Efficacy % (Cercospora beticola [8]; 1 ppm): 97% and 100%
Efficacy % (Colletotrichum coccodes; single active compound at 0.2 ppm): 23% and 33%
Efficacy % (Colletotrichum coccodes; single active compound at 1 ppm): 16%
Efficacy (Diaporthe citri [9]; Table F12, 0.008 ppm alone): 0%
Efficacy (Diaporthe citri [9]; Table F12, 0.2 ppm alone): 83%
Efficacy (Diaporthe citri [9]; Table F12, 1 ppm alone): 94%
Efficacy (Diaporthe citri [9]; Table F13, 0.2 ppm alone): 79%
Efficacy % (Alternaria alternate; 0.04 ppm): 5% and 9%
Efficacy % (Alternaria alternate; 0.2 ppm): 2% and 7%
Efficacy % (Alternaria alternate; 1.0 ppm): 41% and 30%
Efficacy % (Alternaria alternate; 5.0 ppm): 76% and 59%
Efficacy % (Cercospora beticola [10]; 0.04 ppm): 0%
Efficacy % (Cercospora beticola [10]; 0.2 ppm): 2%
Efficacy % (Cercospora beticola [10]; 0.2 ppm alone): 41% and 35%
Efficacy % (Cercospora beticola [10]; 1.0 ppm): 20%
Efficacy % (Cercospora beticola [10]; 1.0 ppm alone): 62% and 53%
Efficacy % (Cercospora beticola [10]; 5.0 ppm): 98%
Efficacy % (Cercospora beticola [10]; 5.0 ppm alone): 92% and 88%
Efficacy % ([11]; single active at 0.04 ppm): 0%
Efficacy % ([11]; single active at 0.2 ppm): 5%
Efficacy % ([11]; single active at 1.0 ppm): 69% and 66%
Efficacy % ([11]; single active at 5.0 ppm): 79% and 86%

mancozeb [(5.013) mancozeb]
Efficacy (Botrytis cinerea [1]; 0.4 ppm): 0%
Efficacy (Botrytis cinerea [1]; 2.0 ppm): 0%
Efficacy (Botrytis cinerea [1]; 10.0 ppm): 33%
Efficacy % (Botrytis cinerea [1]; 0.8 ppm): 15%
Efficacy % (Botrytis cinerea [1]; 4.0 ppm): 0%
Efficacy % (Botrytis cinerea [1]; 20.0 ppm): 15%
Efficacy % (Botrytis cinerea [1]; 100.0 ppm): 83%
Efficacy (Alternaria alternata; 0.8 ppm): 4%
Efficacy (Alternaria alternata; 4 ppm): 36%
Efficacy (Alternaria alternata; 20 ppm): 63%
Efficacy (Diaporthe citri [2]; Table F10, 0.08 ppm alone): 0%
Efficacy (Diaporthe citri [2]; Table F10, 0.4 ppm alone): 46%
Efficacy (Diaporthe citri [2]; Table F10, 2.0 ppm alone): 100%
Efficacy (Diaporthe citri [2]; Table F10, 10.0 ppm alone): 100%
Efficacy (Diaporthe citri [2]; applied alone, 0.08 ppm): 6%
Efficacy (Diaporthe citri [2]; applied alone, 0.4 ppm): 21%
Efficacy (Diaporthe citri [2]; applied alone, 2.0 ppm): 100%
Efficacy (Diaporthe citri [2]; applied alone, 10.0 ppm): 100%
Efficacy (Diaporthe citri [2]; single active, 0.08 ppm): 2%
Efficacy (Diaporthe citri [2]; single active, 0.4 ppm): 0%
Efficacy (Diaporthe citri [2]; single active, 2.0 ppm): 46%
Efficacy (Diaporthe citri [2]; single active, 10.0 ppm): 100%
Efficacy (Parastagonospora nodorum; 0.08 ppm): 0%
Efficacy (Parastagonospora nodorum; 0.4 ppm): 5%
Efficacy (Parastagonospora nodorum; 2.0 ppm): 37%
Efficacy (Parastagonospora nodorum; 10.0 ppm): 100%
Efficacy % ([4]; 0.08 ppm): 3%
Efficacy % ([4]; 0.4 ppm): 0%
Efficacy % ([4]; 2.0 ppm): 10%
Efficacy % ([4]; 10.0 ppm): 98%
Efficacy (Cordana musae [5]; 0.8 ppm): 0%
Efficacy (Cordana musae [5]; 4 ppm): 14% and 19%
Efficacy (Cordana musae [5]; 20 ppm): 100%
Efficacy (Fusarium culmorum; single active compound, 0.8 ppm): 0%
Efficacy (Fusarium culmorum; single active compound, 4 ppm): 16%
Efficacy (Fusarium culmorum; single active compound, 20 ppm): 50% and 31%
Efficacy % (Cordana musae [6]; 0.08 ppm): 0%
Efficacy % (Cordana musae [6]; 0.4 ppm): 0% and 3%
Efficacy % (Cordana musae [6]; 2.0 ppm): 31% and 32%
Efficacy % (Cordana musae [6]; 10.0 ppm): 100%
Efficacy % (Botrytis cinerea [7]; 0.8 ppm): 0% and 4%
Efficacy % (Cercospora beticola [8]; 0.8 ppm): 0%
Efficacy % (Colletotrichum coccodes; single active compound at 0.8 ppm): 0%
Efficacy % (Colletotrichum coccodes; single active compound at 4 ppm): 0%
Efficacy % (Colletotrichum coccodes; single active compound at 20 ppm): 100%
Efficacy (Diaporthe citri [9]; Table F14, 0.8 ppm alone): 0%
Efficacy (Diaporthe citri [9]; Table F14, 4 ppm alone): 78%
Efficacy (Diaporthe citri [9]; Table F14, 20 ppm alone): 99%
Efficacy % (Cercospora beticola [10]; 0.08 ppm): 4% and 0%
Efficacy % (Cercospora beticola [10]; 0.08 ppm alone): 0%
Efficacy % (Cercospora beticola [10]; 0.4 ppm alone): 0%
Efficacy % (Cercospora beticola [10]; 2.0 ppm): 100%
Efficacy % (Cercospora beticola [10]; 2.0 ppm alone): 100%
Efficacy % (Cercospora beticola [10]; 10.0 ppm): 100%
Efficacy % (Cercospora beticola [10]; 10.0 ppm, alone): 100%
Efficacy % ([11]; single active at 0.08 ppm): 4%
Efficacy % ([11]; single active at 0.4 ppm): 0%
Efficacy % ([11]; single active at 10.0 ppm): 100%
